Results on 94 compounds are retold here after ChEMBL document CHEMBL3507680, “University of Dundee, Gates Library screen for HepG2 cell viability”.

The nature of the series: Human HepG2 cell viability assay in 384 well format. The note with it: HepG2 cells, read-out: Inhibition. Also on record: dose 125 nL, time 70.5 hour; concentration not given beside the values. Format: toxicity, cell-based.
In the case of `COc1ccc(C2CCCCCN2S(=O)(=O)N(C)C)cc1` (centres undefined), the cytotoxicity at 70.5 h was -7.96%.

Take `COc1cc(CN(C)C(=O)Cc2c(C)nn(C)c2C)ccc1OC(F)F`: the cytotoxicity at 70.5 h was found to be 3.07%.

Turning to `CN1CCN(CCCNC(=O)c2cc(Cl)c3c(c2)OCO3)CC1`, the cytotoxicity at 70.5 h is -6.03%.

For the compound `O=C(Nc1cccc(CN2CCOC2=O)c1)N1CCSCC1`, the cytotoxicity at 70.5 h is -10.5%.

In the case of `CC(C)NC(=O)c1nnn(-c2cccc(C(F)(F)F)c2)c1C1CC1`, the cytotoxicity at 70.5 h is 10.4%.

In the case of `CC1CCCN(CCNC(=O)c2cncnc2C(C)C)C1` (centres undefined), the cytotoxicity at 70.5 h was -4.07%.

For the compound `CN(C)C(=O)c1cccc(NC(=O)N(CCO)Cc2ccsc2)c1`, the cytotoxicity at 70.5 h is -4.45%.

As for `CC(C)CN1CCC(NC(=O)c2ccc(F)cc2I)CC1`, the cytotoxicity at 70.5 h stood at 11.3%.

As to `CCCN(CC(=O)NC)C(=O)c1ccc(-c2ccsc2)nc1C`, the cytotoxicity at 70.5 h was -4.88%.

Consider `COc1ccc(CNC(=O)NC2CCC(O)CC2)c(C(F)(F)F)c1` (centres undefined), for which the cytotoxicity at 70.5 h is -4.62%.

As for `COc1ccc(CNC(=O)NCC2CCOC2)c(C(F)(F)F)c1` (centres undefined), the cytotoxicity at 70.5 h was -2.53%.

For `Cc1nc(C)n(CC2CN(CC(=O)Nc3cccnc3)CCO2)n1` (centres undefined), the cytotoxicity at 70.5 h was -2.68%.

As to `O=C(CCc1cscn1)NS(=O)(=O)c1ccc2c(c1)CCC2`, the cytotoxicity at 70.5 h turned out to be 8.97%.

`CCc1cnc(CN(C)C2CCN(CCS(C)(=O)=O)C2)o1` (centres undefined): the cytotoxicity at 70.5 h was -6.45%.

Take `N#CC1(C(=O)Nc2ccc(OC(F)F)cc2)CCCC1`: the cytotoxicity at 70.5 h was found to be 8%.

For the compound `Cc1cc(F)ccc1CNCCn1cccn1`, the cytotoxicity at 70.5 h was -1.75%.

Regarding `COc1cccc(CNCCc2cc(F)cc3c2OCOC3)c1`, the cytotoxicity at 70.5 h is 14.9%.

Regarding `COc1ccc(C2CCCN2S(=O)(=O)N(C)CC(C)C)cc1` (centres undefined), the cytotoxicity at 70.5 h is -1.91%.

Turning to `Cc1ccc(C(=O)N2CCCC2c2nnc3n2CCCCC3)o1` (centres undefined), the cytotoxicity at 70.5 h is -7.2%.

Take `O=C(CN1CCCC1Cn1cncn1)NC(C1CC1)C1CC1` (centres undefined): the cytotoxicity at 70.5 h was -4.54%.

As for `Cc1nc(CN2CCC(N(C)Cc3noc(C(C)C)n3)C2)cs1` (centres undefined), the cytotoxicity at 70.5 h was determined as 33.4%.

Take `Cc1nn(C)c(C)c1C1COCCN1C(=O)Cc1cccc(F)c1` (centres undefined): the cytotoxicity at 70.5 h came to 12.5%.

Consider `O=C(CC(F)(F)F)N1CCc2onc(Cn3cccn3)c2C1`, for which the cytotoxicity at 70.5 h is -13.4%.

On to `O=C(Cc1ccccn1)N1C[C@H]2CCC[C@@]2(COc2ccccn2)C1`, for which the cytotoxicity at 70.5 h came out at 6.94%.

On to `O=C1CC(c2ccncc2)C2(CCN(Cc3nccs3)CC2)N1` (centres undefined), for which the cytotoxicity at 70.5 h was -7.32%.

Take `O=C1CC(c2ccncc2)C2(CCN(Cc3cccnc3)CC2)N1` (centres undefined): the cytotoxicity at 70.5 h was -6.24%.

For the compound `CNC(=O)[C@H]1C[C@@H]2CCN(Cc3ccc4c(c3)OCO4)C[C@@H]2O1`, the cytotoxicity at 70.5 h was -7.08%.

Take `CN(C)C(=O)[C@H]1C[C@@H]2CCN(Cc3ccncc3)C[C@H]2O1`: the cytotoxicity at 70.5 h is -7.62%.

In the case of `O=C(C1CCC1)N1CCc2onc(Cn3cccn3)c2C1`, the cytotoxicity at 70.5 h is 17.9%.

Consider `c1cnc(N2CCO[C@H]3[C@H](OCc4cccnc4)CC[C@@H]32)nc1`, for which the cytotoxicity at 70.5 h came to 13.6%.

In the case of `c1ccc(CO[C@H]2CC[C@H]3[C@H]2OCCN3CCN2CCCCC2)nc1`, the cytotoxicity at 70.5 h came to 20.6%.

On to `CCC(CC)NC(=O)c1ccc2nnc(C3CCN(S(C)(=O)=O)C3)n2c1` (centres undefined), for which the cytotoxicity at 70.5 h is 6.79%.

As for `COc1cc(N2C[C@H](OCc3cccnc3)[C@H]3OCCC[C@H]32)ncn1`, the cytotoxicity at 70.5 h stood at 3.36%.

`O=C(NC1CCCC1)N1CCC2(CC1)CC(Oc1cccnc1)CO2` (centres undefined): the cytotoxicity at 70.5 h was found to be 26.9%.

As for `Cc1cccc(N2CCC3(CCCN(C(=O)Cc4cccnc4)C3)C2)n1` (centres undefined), the cytotoxicity at 70.5 h stood at 21.3%.

As to `Cc1ccc(N2CCC3(CCCN(C(=O)c4cnccn4)C3)C2)nn1` (centres undefined), the cytotoxicity at 70.5 h turned out to be 1.5%.

Take `Cc1ccc(N2CCC3(CCN(C(=O)c4ccsc4)CC3)C2)nn1`: the cytotoxicity at 70.5 h was found to be 4.86%.

For the compound `CNC(=O)CC1CC2(CCN(S(C)(=O)=O)CC2)c2ccccc21` (centres undefined), the cytotoxicity at 70.5 h was -0.621%.

Turning to `Cn1cc(CN2CCCC3(CCN3S(C)(=O)=O)C2)cn1` (centres undefined), the cytotoxicity at 70.5 h worked out at 7.75%.

`CC(=O)c1cnc(NCCc2csc(-c3cnccn3)n2)nc1C`: the cytotoxicity at 70.5 h was -10.8%.

With `CC(C)Cc1ncc2c(n1)CN(c1cc(N3CCCC3)nc(N)n1)C2`, the cytotoxicity at 70.5 h was 1.59%.

For `COc1ccnc(N2CCC3(CC2)[C@H](O)C[C@@H]3OCCN(C)C)n1`, the cytotoxicity at 70.5 h is 2.31%.

As to `O=C(c1ccc(-n2cnnc2)cc1Cl)N1CCCC2(CCNC2)C1` (centres undefined), the cytotoxicity at 70.5 h was determined as 2.05%.

Consider `O=C(c1ncoc1C1CC1)N1CCN(CCOc2ccccc2)CC1`, for which the cytotoxicity at 70.5 h stood at 26%.

Consider `Cc1cc(C)n(CCCN(C)C(=O)C2COc3ccccc3C2)n1` (centres undefined), for which the cytotoxicity at 70.5 h is 26.5%.

Consider `COc1ccccc1OC1CN(C(=O)C2CNCC(=O)N2)C1` (centres undefined), for which the cytotoxicity at 70.5 h was -9.64%.

Regarding `COc1ccccc1-c1ncc(CN2CCC3(CCNCC3)CC2)cn1`, the cytotoxicity at 70.5 h is -7.68%.

In the case of `Cc1ccc(C)c(OCCN(C)C(=O)CCc2cn[nH]c2)c1`, the cytotoxicity at 70.5 h is -12.7%.

Consider `Cc1nccn1CCN(C)C(=O)C1CCN(C(=O)C2CCC2)CC1`, for which the cytotoxicity at 70.5 h was 11.3%.

`Cc1cc(CNc2cncc(C(=O)N(C)C)n2)c2[nH]c(C)c(C)c2c1`: the cytotoxicity at 70.5 h was 27.8%.

In the case of `Cc1cc(C(=O)N2C[C@H](CO)C[C@H](CN3CCOCC3)C2)nc(C)n1`, the cytotoxicity at 70.5 h is -7.67%.

`CC(=O)N1CCc2c(nc(N(C)C)nc2NC(C)Cc2cccs2)C1` (centres undefined): the cytotoxicity at 70.5 h is -6.58%.

`COc1nc2c(cc1C(=O)N1CC[C@H](CO)[C@@H](O)C1)CCC2`: the cytotoxicity at 70.5 h is -16.1%.

Consider `CN(CC1CCOC1)S(=O)(=O)c1cccc(C(=O)N2CCCCCC2)c1` (centres undefined), for which the cytotoxicity at 70.5 h is -14.8%.

Take `CCc1nc(N)nc(N(C)Cc2nncn2CCOC)c1C`: the cytotoxicity at 70.5 h was 11.8%.

On to `Cc1ccc(CN(CCN(C)C)C(=O)Nc2cnn(C)c2)s1`, for which the cytotoxicity at 70.5 h is -7.54%.

`CCOc1cc2c(cc1CN1CCC3(CC1)CNC(=O)C3)CCC2`: the cytotoxicity at 70.5 h is 23.3%.

As for `CN(C)C(=O)[C@H]1C[C@H]2[C@H](CCN2Cc2ccc3c(c2)OCO3)O1`, the cytotoxicity at 70.5 h is -14.7%.

On to `Cc1ccc(CN2CC[C@H]3C[C@H](C(=O)N(C)C)O[C@H]3C2)cc1`, for which the cytotoxicity at 70.5 h was -17.2%.

Turning to `O=C(c1ccco1)N1C[C@H]2CCCN(Cc3nccs3)[C@H]2C1`, the cytotoxicity at 70.5 h is -11.3%.

As to `O=C(c1cnccn1)N1CCC2(CC1)CCN(Cc1ccccn1)C2=O`, the cytotoxicity at 70.5 h was 19.9%.

Take `Cc1ccc(C(=O)N2Cc3c(CN(C)C)nn(C)c3C2)cc1C`: the cytotoxicity at 70.5 h was found to be 4.85%.

For the compound `Cc1ccc(C(=O)N2Cc3c(CN4CCCCC4)nn(C)c3C2)o1`, the cytotoxicity at 70.5 h amounted to 6.3%.

Regarding `O=C1COC2(CCN(C(=O)c3ccoc3)CC2)CN1Cc1ccccn1`, the cytotoxicity at 70.5 h is -0.827%.

With `CN(C)C(=O)N1CCC2(CC1)CCN(Cc1ccccn1)C2=O`, the cytotoxicity at 70.5 h was determined as 25.9%.

As for `CN(C)C(=O)N1CCC2(CC1)CN(Cc1ccccn1)C(=O)CO2`, the cytotoxicity at 70.5 h is 24.4%.

Turning to `O=C1COC2(CCN(C(=O)C3CC=CC3)CC2)CN1Cc1cccnc1`, the cytotoxicity at 70.5 h turned out to be 12.1%.

As for `Cn1nc(CN2CCCCC2)c2c1CN(C(=O)c1cccc(C#N)c1)C2`, the cytotoxicity at 70.5 h is 15.7%.

`Cc1cccc(-c2nnn3c2COC(CNCc2nccs2)C3)c1` (centres undefined): the cytotoxicity at 70.5 h was -3.21%.

Consider `Cc1nc(CN2CCCn3c(nc(Cn4cncn4)cc3=O)C2)cs1`, for which the cytotoxicity at 70.5 h came out at 22.5%.

On to `Cc1oncc1C(=O)NCc1cc(=O)n2c(n1)CN(CC1CC1)CCC2`, for which the cytotoxicity at 70.5 h amounted to 17.8%.

For `CN1CC(=O)N(c2ccccc2)CC12CCN(C(=O)CC1CC1)C2` (centres undefined), the cytotoxicity at 70.5 h was found to be 8.17%.

On to `Cc1ccc(N2CCC3(CCN(C(=O)c4ccsc4)C3)CC2)nn1`, for which the cytotoxicity at 70.5 h was -12.9%.

Turning to `Cc1noc(C)c1CN1CCO[C@H]2CN(C3CCOCC3)C[C@H]21`, the cytotoxicity at 70.5 h came out at 21.3%.

`COCCN1CCCn2c(nc(Cn3cncn3)cc2=O)C1`: the cytotoxicity at 70.5 h is 19.3%.

Consider `Cc1ccc(N2CCC3(CCN(C(=O)c4ccnnc4)CC3)CC2)nn1`, for which the cytotoxicity at 70.5 h turned out to be 2.95%.

As to `O=C(NCc1ccco1)[C@@H]1CCO[C@@H]2CCN(C3CCOCC3)C[C@H]21`, the cytotoxicity at 70.5 h was 4.93%.

For the compound `CN1CC(=O)N(c2ccsc2)CC12CCN(C(=O)N1CCCC1)C2` (centres undefined), the cytotoxicity at 70.5 h was -7.42%.

In the case of `Cc1cc(C(=O)N2CCC3(C2)CN(c2ccsc2)C(=O)CN3C)[nH]n1` (centres undefined), the cytotoxicity at 70.5 h was -7.61%.

With `O=C(NCc1ccco1)[C@@H]1CCO[C@@H]2CCN(CC3CC3)C[C@@H]21`, the cytotoxicity at 70.5 h was -6.8%.

For the compound `CN1CCC2(CC1)CN(C(=O)c1cnccn1)Cc1ccccc12`, the cytotoxicity at 70.5 h was -5.07%.

Turning to `CN(C)C[C@H]1OC[C@@H]2CCN(S(=O)(=O)c3ccc(F)cc3)C[C@@H]21`, the cytotoxicity at 70.5 h is -7.32%.

Consider `CN1CC(=O)N(c2ccccc2)CC12CCN(C(=O)c1cccs1)C2` (centres undefined), for which the cytotoxicity at 70.5 h was -5.55%.

Consider `CN1CCOCC2(CCCN(C(=O)Cc3ccncc3)C2)C1` (centres undefined), for which the cytotoxicity at 70.5 h was -11.6%.

In the case of `CCOCC1CN(CC2CC2)Cc2nn(C)cc21` (centres undefined), the cytotoxicity at 70.5 h is -4.39%.

Consider `Cc1cccc(CN2C[C@@H]3COC[C@]3(CNC(=O)c3ccno3)C2)n1`, for which the cytotoxicity at 70.5 h was 7.45%.

For the compound `Cn1nnc2c1C(COCc1cccnc1)CN(Cc1ccoc1)C2` (centres undefined), the cytotoxicity at 70.5 h was -16.5%.

Turning to `Cc1nc(CO[C@H]2CN(Cc3ccccn3)[C@@H]3CCCO[C@H]23)cs1`, the cytotoxicity at 70.5 h came out at 6.92%.

In the case of `Cc1nc(CN2CCO[C@H]3[C@@H](OCc4cccnc4)CC[C@@H]32)cs1`, the cytotoxicity at 70.5 h was 4.04%.

For `Cc1noc(C)c1CN1CCO[C@H]2CN(Cc3nccn3C)C[C@H]21`, the cytotoxicity at 70.5 h is 0.477%.

For the compound `c1cnc(N2CCC3(CCN(CC4CCCC4)CC3)C2)nc1`, the cytotoxicity at 70.5 h is -1.07%.

For `Cc1noc(C)c1CN1CCO[C@H]2CN(Cc3cnn(C)c3)C[C@H]21`, the cytotoxicity at 70.5 h is -4.66%.

Consider `COc1ncccc1C(=O)N1CC[C@]2(C[C@@H](Oc3cccnc3)CO2)C1`, for which the cytotoxicity at 70.5 h was determined as 25.3%.

In the case of `Cc1ccc(C(=O)N2CCN3C[C@H](Oc4cccnc4)C[C@H]3C2)cn1`, the cytotoxicity at 70.5 h amounted to 4.6%.
